The values that follow come from patent publication US4123544A, “Acetylsalicylic acid derivatives” (priority 1977, dated 1978).

In brackets after ≈: the same amount, converted by molar mass. Several values for one entry are separate records, joined by “and”; a condition that tells them apart may be missing. Equal entries are not always repeated. Where two headings read alike, the source gives them in different places.

One series has as its system gastric ulcers. As to conditions: administered orally; known disadvantage; cited from earlier work.
A short description of series [1]: acute toxicity, intraperitoneal administration to mice. Conditions: mouse, in vivo, ip. An excerpt:
The LD50 of the compound according to the invention, when administered intraperitoneally to mice, was about 10g/kg, whilst it was about 3g/kg for lysine acetylsalicylate.

The next series can be described thus: Solubility in water. In kind it is physicochemical.
Series [2] has as its system phenylbenzoquinone cramping. Put plainly: Analgesic activity, phenylbenzoquinone cramping test. The format is in vivo. Conditions: oral; for Percentage change in number of cramps versus control / Number of cramps / Percentage inhibition relative to the control animals: 2 hours before test; for Number of cramps: control 449. As for the experimental part: The analgesic activity of 1-o-acetoxybenzoyl-4-hydroxy-L-proline was studied by means of the phenylbenzoquinone cramping test, in comparison with the same injectable aspirin as that used in Example 2, the two compouns being administered orally 2 hours before the test on groups of 10 animals; a control group of animals to which neither compound was administered was also used.

For the next series, the system named is mice. Put plainly: acute toxicity on intravenous administration to mice. The format is in vivo. An excerpt:
(§1) acute toxicity on intravenous administration to mice
(§2) The acute toxicity of 1-o-acetoxybenzoyl-4-hydroxy-L-proline was investigated by comparison with an injectable aspirin, namely lysine acetylsalicylate. The acetylsalicylic acid content of the two compounds was substantially the same (about 50%).
(§3) (Intravenous administration to mice)
(§4) *x/5: number of dead animals amongst 5 animals tested.

Series [3] has as its system hyperthermia caused by the injection of brewer's yeast. Put plainly: Antipyretic activity, hyperthermia caused by injection of brewer's yeast. In kind it is in vivo, rats. As to conditions: intraperitoneal; for central temperature: 200 mg to 400 mg/kg, 37.28 ± 0.052 at Ho. Here is the method:
The antipyretic activity of 1-o-acetoxybenzoyl-4-hydroxyl-L-proline was assessed by the hyperthermia caused by the injection of brewer's yeast 17 hours before the start of the experiment (groups of 8 rats + 1 comparison group without yeast). The first temperature measurement was made at time Ho and the compounds to be tested were then administered intraperitoneally. The central temperature was then checked 1 hour 30 minutes, 3 hours and 4 hours 30 minutes after Ho.

Series [4] relates to carrageenin-induced plantar oedema. Put plainly: Anti-inflammatory activity, carrageenin-induced plantar oedema test on rats (intraperitoneal). As to conditions: for percentage variation in volume, (V2 - V1)/V1 × 100, individual rats: 200 mg/kg (expressed as weight of compound); for percentage variation in volume, (V2 - V1)/V1 × 100, individual rats / percentage variation in volume, mean (X): 3 hours; for percentage variation in volume, mean (X): controls 88.22% ± 10.5; for Percentage variation: mean oedema versus controls. The format is in vivo. As for the experimental part: The anti-inflammatory activity of 1-o-acetoxybenzoyl-4-hydroxy-L-proline was studied by means of the carrageenin-induced plantar oedema test on rats.
[…] of each rat in three groups of 8 to 9 rats was injected with carrageenin at time Ho. The first group was a control group and the second and third groups were test groups. The volume (V1) of the paw was then measured, and the compounds to be tested were administered intraperitoneally. The volume (V2) of the same paw was measured again three hours later.

The subject of the next series is rats. Put plainly: Analgesic activity, Randall-Selitto test on rats. The format is in vivo. An excerpt:
The analgesic activity of 1-o-acetoxybenzoyl-L-proline was studied on rats by means of the Randall-Selitto test (Arch. int. Pharmacodyn., 1957, 111, 409, 419).

Series [5] can be described thus: acute toxicity, oral administration to mice. As to conditions: mouse, in vivo, orally.
The test system of series [6] is carrageenin-induced oedema. As to the kind of experiment: Anti-inflammatory activity, carrageenin-induced oedema test on rats (intramuscular). In kind it is in vivo. As to conditions: for % inhibition / % Variation in the volume of the oedema: 3 hours; for % Variation in the volume of the oedema: comparisons 107.39 ± 5.19. Here is the method:
The anti-inflammatory activity of 1-o-acetoxybenzoyl-L-proline was studied by means of the carrageenin-induced oedema test on rats. In this test, the antiinflammatory activity of the compound according to the invention was compared with that of an injectable aspirin, namely lysine acetylsalicylate.
the compounds were injected intramuscularly, 30 minutes before the carrageenin. The volume of the oedema was measured three hours afterwards.

Series [7] is described as follows: acute toxicity on intravenous administration to mice. Conditions: mouse, in vivo; intravenous, mice. In kind it is in vivo.
Description: as §1, §2, §3, §4

Setting [8] is: 50 mg/kg (expressed as weight of compound).
[9] abbreviates: 100 mg/kg (expressed as weight of compound).
The mark [10] stands for this setting: 50 mg/kg (expressed as acetylsalicylic acid).
Where [11] appears, read: 100 mg/kg (expressed as acetylsalicylic acid).

As for `CC(=O)Oc1ccccc1C(=O)O` [acetylsalicylic acid], the ulcerogenic activity entry with gastric ulcers is reported as “ulcerogenic”.
The compound `CC(=O)Oc1ccccc1C(=O)N1CC(O)C[C@H]1C(=O)O` (stereo partly drawn) [1-o-acetoxybenzoyl-4-hydroxy-L-proline] showed an LD50 in [1] of about 10000 mg/kg. This compound also gave a solubility in the series “Solubility in water” (pH = 3) of about 50 mg/mL (≈ 170 mM). Moreover, the results for the “Percentage change in number of cramps versus control” value in series [2] (setting [8]) and in series [2] (setting [9]) were -12% and -57%, respectively. Besides, the Number of cramps in series [2] (setting [8]) was 396; in series [2] (setting [9]), 194. The “analgesic activity relative to the injectable aspirin” value in [2] (phenylbenzoquinone test) is on record as “practically twice that of the injectable aspirin”. The “toxicity (in words)” value in the series with mice (intravenous, mice) is “substantially non-toxic”. In addition, the “number of dead animals amongst 5 animals tested” value was 0/5 with mice (intravenous, mice, 700 mg/kg); 0/5 in the series with mice (intravenous, mice, 1,500 mg/kg); 0/5 in the series with mice (intravenous, mice, 3,000 mg/kg); 0/5 in the series on mice (intravenous, mice, 4,000 mg/kg). Moreover, the immediate symptoms result in the series with mice (mouse, in vivo, iv) was “practically no symptoms”. Besides, the central temperature was 36.12 °C in series [3] (1 hr 30 mins after Ho), 36.40 °C in [3] (3 hrs after Ho) and 36.82 °C in [3] (4 hrs 30 mins after Ho). In addition, the “antipyretic activity (in words)” value in series [3] (versus injectable aspirin) is listed as “greater than that of the injectable aspirin”. Moreover, the “percentage variation in volume, (V2 - V1)/V1 × 100, individual rats” value in series [4] (listed as Compound according to the invention) is 63.6% and 64% and 82.5% and 82.3% and 63.5% and 61.6% and 67.4% and 53.7% and 60.9%. Also, the “percentage variation in volume, mean (X)” value in [4] (200 mg/kg) is on record as 66.61 ± 9.7%. The “anti-inflammatory activity (in words)” value in series [4] (200 mg/kg, versus injectable aspirin) was “very good anti-inflammatory activity, markedly superior to that of the injectable aspirin”. Further, the Percentage variation in [4] (200 mg/kg) was -24%.
`CC(=O)Oc1ccccc1C(=O)O` [Lysine acetylsalicylate, lysine acetylsalicylate, reference compound]: the Inhibition % with rats (50 mg/kg, 1 hour) is given as 72.98%; in the series with rats (50 mg/kg, 2 hours), 60.26%; with rats (50 mg/kg, 4 hours) it was 65.79%; in the series with rats (100 mg/kg, 1 hour) it was 85.14%; in the series with rats (100 mg/kg, 2 hours) it was 97.44%; with rats (100 mg/kg, 4 hours), 73.68%. For the same compound, the Inhibition % in the series with rats (200 mg/kg, 1 hour) was 105.40%; in the series on rats (200 mg/kg, 2 hours), 124.36%; in the series with rats (200 mg/kg, 4 hours) it was 111.84%. Further, the LD50 in [5] was 3000 mg/kg; in series [1] (intraperitoneally, mice, read-out: LD50), about 3000 mg/kg; in [7], about 2000 mg/kg. For the same compound, the “% inhibition” value in series [6] (50 mg/kg) came out at 16.74%; in series [6] (100 mg/kg), 27.56%; in [6] (200 mg/kg), 41.76%. Moreover, the “% Variation in the volume of the oedema” value is recorded as 89.41 ± 9.39% in [6] (50 mg/kg), 77.79 ± 5.39% in series [6] (100 mg/kg) and 62.54 ± 6.83% in series [6] (200 mg/kg). The “Percentage inhibition relative to the control animals” value in [2] (setting [10]) is -14%; in [2] (setting [11]), -56%. Further, the Number of cramps amounted to 386 in series [2] (setting [10]) and 196 in series [2] (setting [11]). For the same compound, in the series on mice (intravenous, mice), the immediate symptoms result was “pronounced, with depression, ataxia and convulsions occurring”. Moreover, the “number of dead animals amongst 5 animals tested” value is listed as 0/5 in the series with mice (intravenous, mice, 1,500 mg/kg); 5/5 with mice (intravenous, mice, 2,000 mg/kg); 3/5 with mice (intravenous, mice, 3,000 mg/kg); 5/5 with mice (intravenous, mice, 3,500 mg/kg). Further, the central temperature in [3] (1 hr 30 mins after Ho) was determined as 36.64 °C; in [3] (3 hrs after Ho) it was 36.92 °C; in series [3] (4 hrs 30 mins after Ho), 36.90 °C. The “percentage variation in volume, (V2 - V1)/V1 × 100, individual rats” value in series [4] (listed as Injectable aspirin) was 74.4% and 83.3% and 70.7% and 68.3% and 87.5% and 61% and 85% and 64%. For the same compound, the “percentage variation in volume, mean (X)” value in [4] (200 mg/kg) was 74.29% ± 9.36. The Percentage variation in series [4] (200 mg/kg) is on record as -16%.
In the case of `CC(=O)Oc1ccccc1C(=O)N1CCC[C@H]1C(=O)O` [1-o-acetoxybenzoyl-L-proline], the Inhibition % is recorded as 59.49% with rats (50 mg/kg, 1 hour); 67.57% in the series with rats (50 mg/kg, 2 hours); 44.00% in the series with rats (50 mg/kg, 4 hours); 74.68% in the series on rats (100 mg/kg, 1 hour); 89.19% with rats (100 mg/kg, 2 hours); 53.33% in the series with rats (100 mg/kg, 4 hours). The Inhibition % in the series on rats (200 mg/kg, 1 hour) was 98.73%; in the series with rats (200 mg/kg, 2 hours) it was 130.98%; in the series with rats (200 mg/kg, 4 hours) it was 104.01%. Besides, in the series with rats (dose of 100 mg), the “analgesic activity (in words)” value is given as “comparable to that of lysine acetylsalicylate used at medium doses”. In addition, the “% inhibition” value is reported as 2.48% in series [6] (50 mg/kg), 23.97% in series [6] (100 mg/kg) and 29.50% in [6] (200 mg/kg). Further, the “% Variation in the volume of the oedema” value is on record as 104.73 ± 7.23% in series [6] (50 mg/kg), 81.65 ± 5.97% in series [6] (100 mg/kg) and 75.71 ± 4.8% in [6] (200 mg/kg). Besides, the “antiinflammatory activity (in words)” value in [6] (dose of 100 mg) is “comparable to that of lysine acetylsalicylate used at medium doses”. For the same compound, in the series “Solubility in water”, the solubility came out at 50 mg/mL (≈ 180 mM).
